Read-outs that look alike come from different tables or passages of the source.
Test system: modified Shay rat
Test: Antiulcerogenic and secretion-inhibiting action on the modified Shay rat (pylorus ligature plus oral acetylsalicylic acid)
Format: in vivo
Settings: for Inhibition of acid secretion: Reduction in HCl secretion / Protective action on stomach: Reduction in lesion index: 4 hours; for ED50: Rattus norvegicus, 4 h, i.d.
Procedure: Ulcers are provoked in rats which have fasted for 24 hours (female, 180-200 g, 4 animals per cage on high grid) by pylorus ligature (under diethyl ether anaesthesia) and oral administration of 100 mg/10 ml/kg acetylsalicylic acid. The substances to be tested are administered intraduodenally (2,5 ml/kg) immediately following t[e pylorus ligature. The wound is closed by means of Michel clamps. 4 hours later, the animals are sacrificed under ether anaesthesia by atlas dislocation and the stomach is resected. The stomach is opened along the greater curvature and clamped on a cork sheet after first determining the amount of secreted gastric juice (volume) and subsequently its HCl content (titration with sodium hydroxide solution). Using a stereomicroscope at 10×magnification, the number and size (=diameter) of ulcers present are determined. The product of severity (according to the scale of points below) and number of ulcers serves as an individual lesion index. |Scale of points: | No ulcers 0 | Ulcer diameter | 0.1-1.4 mm | 1 | 1.5-2.4 mm | 2 | 2.5-3.4 mm | 3 | 3.5-4.4 mm | 4 | 4.5-5.4 mm | 5 | >5.5 mm 6 The reduction in the mean lesion index of each treated group compared with the control group (=100%) serves as a measure of the antiulcerogenic effect. The ED50 designates the dose which reduces the mean lesion index or the HCl secretion by 50% compared with the control.

[1] = 0.1 μmol/kg i.d. (intraduodenal)
[2] = 0.3 μmol/kg i.d. (intraduodenal)
[3] = 1.0 μmol/kg i.d. (intraduodenal)
[4] = 3.0 μmol/kg i.d. (intraduodenal)
[5] = 10.0 μmol/kg i.d. (intraduodenal)
[6] = 30.0 μmol/kg i.d. (intraduodenal)
[7] = dose (interpolated) which reduces the HCl secretion by 50% compared with control group, read-out: Inhibition of acid secretion: Approx. ED50
[8] = dose (interpolated) which reduces the lesion index by 50% compared with control group, read-out: Protective action on stomach: Approx. ED50
[9] = 0.6 μmol/kg i.d. (intraduodenal)
[10] = 1.5 μmol/kg i.d. (intraduodenal)
[11] = 2.0 μmol/kg i.d. (intraduodenal)
[12] = 6.0 μmol/kg i.d. (intraduodenal)

Row | SMILES | Inhibition of acid secretion: Reduction in HCl secretion [2] | Protective action on stomach: Reduction in lesion index [2] | Inhibition of acid secretion: Reduction in HCl secretion [3] | Protective action on stomach: Reduction in lesion index [3] | Inhibition of acid secretion: Reduction in HCl secretion [4] | Protective action on stomach: Reduction in lesion index [4] | Inhibition of acid secretion: Reduction in HCl secretion [5] | Protective action on stomach: Reduction in lesion index [5] | Inhibition of acid secretion: Reduction in HCl secretion [6] | Protective action on stomach: Reduction in lesion index [6] | ED50 [7] | ED50 [8] | also measured
1 | Cc1nc2c(O[C@@H]3c4ccccc4C[C@H]3O)cccn2c1CO (relative stereo) [Example 8, 3-hydroxymethyl-8-(2-(trans)-hydroxy-2,3-dihydro-1-indenyloxy)-2-methyl-imidazo[1,2-a]pyridine] | 19% | 43% | 25% | 47% | 20% | 74% | 35% | 94% | 98% | 100% | ~12.9 µmol/kg | ~0.69 µmol/kg | Inhibition of acid secretion: Reduction in HCl secretion [1]: 10%; Protective action on stomach: Reduction in lesion index [1]: 13%
2 | Cc1nc2c(O[C@@H]3c4ccccc4C[C@H]3O)cccn2c1N.Cl (relative stereo) [Example 11, 3-amino-8-(2-(trans)-hydroxy-2,3-dihydro-1-indenyloxy)-2-methyl-imidazo[1,2-a]pyridine-hydrochloride] |  |  | 16% | 27% | 32% | 71% | 67% | 100% |  |  | ~6.02 µmol/kg | ~1.69 µmol/kg | 
3 | Cc1nc2c(O[C@@H]3c4ccccc4C[C@H]3O)cccn2c1C (relative stereo) [Example 2] | -20% | 25% | 23% | 47% | 52% | 81% | 47% | 94% | 95% | 100% | ~4.27 µmol/kg | ~0.84 µmol/kg | 
4 | Cc1nc2c(O[C@@H]3c4ccccc4C[C@H]3O)cccn2c1CC#N (relative stereo) [Example 4, 3-cyanomethyl-8-(2-(trans)-hydroxy-2,3-dihydro-1-indenyloxy)-2-methyl-imidazo[1,2-a]pyridine] | -26% | 18% | 22% | 35% | 63% | 93% |  |  | 99% | 100% | ~1.95 µmol/kg | ~1.04 µmol/kg | Inhibition of acid secretion: Reduction in HCl secretion [9]: 12%; Protective action on stomach: Reduction in lesion index [9]: 33%; Inhibition of acid secretion: Reduction in HCl secretion [10]: 50%; Protective action on stomach: Reduction in lesion index [10]: 94%; Inhibition of acid secretion: Reduction in HCl secretion [11]: 51%; Protective action on stomach: Reduction in lesion index [11]: 98%; Inhibition of acid secretion: Reduction in HCl secretion [12]: 73%; Protective action on stomach: Reduction in lesion index [12]: 100%
5 | Cc1nc2c(O[C@@H]3c4ccc(F)cc4C[C@H]3O)cccn2c1CO (relative stereo) [Example 30, 8-(5-fluoro-2-(trans)-hydroxy-2,3-dihydro-1-indenyloxy)-3-hydroxymethyl-2-methyl-imidazo[1,2-a]pyridine] |  |  |  |  | 41% | 86% |  |  |  |  |  |  | 
